# US9540391B2, “Isomannide derivatives as inhibitors of soluble epoxide hydrolase” (SANOFI, priority 2013, dated 2017)
# Where a name gives a salt, the structure may show the parent alone.
# Target: T1, recombinant sEH (Homo sapiens, UniProt P34913)
# T1 construct: made in house; host or cells: Sf9 insect cells
# T1 sequence (P34913 1-555): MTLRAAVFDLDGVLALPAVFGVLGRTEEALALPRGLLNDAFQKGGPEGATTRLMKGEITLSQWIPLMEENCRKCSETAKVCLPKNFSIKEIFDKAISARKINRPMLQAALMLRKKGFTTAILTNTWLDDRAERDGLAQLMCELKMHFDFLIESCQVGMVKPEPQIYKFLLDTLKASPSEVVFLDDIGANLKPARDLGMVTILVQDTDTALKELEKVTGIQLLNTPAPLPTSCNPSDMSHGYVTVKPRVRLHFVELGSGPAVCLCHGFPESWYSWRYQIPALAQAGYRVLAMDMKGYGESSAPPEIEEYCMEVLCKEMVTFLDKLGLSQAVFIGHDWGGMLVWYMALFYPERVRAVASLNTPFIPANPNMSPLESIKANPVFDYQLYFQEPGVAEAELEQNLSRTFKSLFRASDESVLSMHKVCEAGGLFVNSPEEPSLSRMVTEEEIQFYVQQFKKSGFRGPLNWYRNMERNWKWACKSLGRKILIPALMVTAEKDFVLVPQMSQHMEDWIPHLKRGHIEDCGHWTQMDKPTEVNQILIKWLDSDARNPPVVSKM
# Test: biochemical screening assay for inhibition of soluble epoxide hydrolase (fluorometric, Phome substrate)
# How it was run: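 Human sEH from Sf9 cells (2 nM final) was pre-incubated 15 min at 30 °C with compound (0.0001–10 μM), then reacted 60 min at 30 °C with 5 μM Phome in 25 mM Hepes/0.01% albumin. Fluorescence of released 6-methoxy-2-naphthaldehyde was read before substrate and at end; IC50 from % inhibition.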
row,IC50 [nM],SMILES
1,51,"CC[C@@H](NC(=O)N[C@H]1CO[C@H]2[C@@H]1OC[C@@H]2Oc1ccc(F)cc1)c1ccccc1 [Example 154, 1-[(3S,3aR,6S,6aS)-6-(4-Fluoro-phenoxy)-hexahydro-furo[3,2-b]furan-3-yl]-3-((R)-1-phenyl-propyl)-urea]"
2,< 1,"O=C(NC1CCCCC1)N[C@H]1CO[C@H]2[C@@H]1OC[C@@H]2Sc1cnccn1 [Example 55, 1-Cyclohexyl-3-[(3S,3aR,6S,6aS)-6-(pyrazin-2-ylsulfanyl)-hexahydro-furo[3,2-b]furan-3-yl]-urea]"
3,29,"O=C(NCc1ccc(F)cc1)NC1COC2C(CCc3ccsc3)COC12 [Example 364, 1-(4-Fluoro-benzyl)-3-[(3S,3aR,6R)-6-((S)-2-thiophen-3-yl-ethyl)-hexa-hydro-furo[3,2-b]furan-3-yl]-urea]"
4,24,"N#C[C@H]1CO[C@H]2[C@@H]1OC[C@@H]2NC(=O)Nc1ccc(OC(F)(F)F)cc1 [Example 378, 1-((3S,3aR,6S,6aR)-6-cyano-hexahydro-furo[3,2-b]furan-3-yl)-3-(4-trifluoromethoxy-phenyl)-urea]"
5,1,"Cc1nc(S[C@H]2CO[C@H]3[C@@H]2OC[C@@H]3NC(=O)NC2CCCCC2)sc1C [Example 62, 1-Cyclohexyl-3-[(3S,3aR,6S,6aS)-6-(4,5-dimethyl-thiazol-2-ylsulfanyl)-hexahydro-furo[3,2-b]furan-3-yl]-urea]"
6,159,"O=C(NC1CCCCC1)N[C@H]1CO[C@H]2[C@@H]1OC[C@@H]2/C=C\c1ccccn1 [Example 334, 1-Cyclohexyl-3-[(3S,3aR,6S,6aR)-6-((Z)-2-pyridin-2-yl-vinyl)-hexahydro-furo[3,2-b]furan-3-yl]-urea; trifluoroacetate]"
7,17,"O=C(Nc1cccc(C(F)(F)F)c1)N[C@H]1CO[C@@H]2[C@@H](CCc3ccsc3)CO[C@@H]21 [Example 375, 1-[(3S,3aR,6S,6aR)-6-(2-Thiophen-3-yl-ethyl)-hexahydro-furo[3,2-b]furan-3-yl]-3-(3-trifluoromethyl-phenyl)-urea]"
8,111,"Cc1ncccc1O[C@H]1CO[C@H]2[C@@H]1OC[C@@H]2NC(=O)N[C@@H]1CCCC[C@H]1C(C)(C)C [Example 265, 1-((1R,2S)-2-tert-Butyl-cyclohexyl)-3-[(3S,3aR,6S,6aS)-6-(2-methyl-pyridin-3-yloxy)-hexahydro-furo[3,2-b]furan-3-yl]-urea]"
9,1,"Cc1ccnc(C)c1O[C@H]1CO[C@H]2[C@@H]1OC[C@@H]2NC(=O)NC1CCCCC1 [Example 37, 1-Cyclohexyl-3-[(3S,3aR,6S,6aS)-6-(2,4-dimethyl-pyridin-3-yloxy)-hexa-hydro-furo[3,2-b]furan-3-yl]-urea]"

row,SMILES,IC50 [nM]
1,"CCCCOc1ccc(NC(=O)NC2COC3C(C#Cc4ccccc4)COC23)cc1 [Example 283, 1-(4-Butoxy-phenyl)-3-[(3S,3aR,6R)-6-((S)-phenylethynyl)-hexahydro-furo[3,2-b]furan-3-yl]-urea]",70
2,"CC(C)(C)Oc1ccc(O[C@H]2CO[C@H]3[C@@H]2OC[C@@H]3NC(=O)NC2CCCCC2)cc1 [Example 116, 1-[(3S,3aR,6S,6aS)-6-(4-tert-Butoxy-phenoxy)-hexahydro-furo[3,2-b]furan-3-yl]-3-cyclohexyl-urea]",3
